A value given as a limit tells only on which side of the number the result lay.

The target of this assay is T1, human plasma protein factor Xa (Homo sapiens, UniProt P00742).
T1 construct: measure proteolytic activity of the enzyme (factor Xa); purchased Haematologic Technologies (Essex Junction, Vt.); host or cells: human plasma
T1 sequence (P00742 235-488 limits assumed): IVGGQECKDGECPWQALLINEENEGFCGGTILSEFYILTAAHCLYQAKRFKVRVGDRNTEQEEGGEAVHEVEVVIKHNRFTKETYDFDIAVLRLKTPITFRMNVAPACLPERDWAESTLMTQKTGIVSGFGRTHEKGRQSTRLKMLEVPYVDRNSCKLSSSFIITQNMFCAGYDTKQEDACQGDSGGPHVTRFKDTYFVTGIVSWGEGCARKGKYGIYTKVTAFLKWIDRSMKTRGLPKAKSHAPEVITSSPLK
T1 sequence (P00742 41-179 partner limits assumed): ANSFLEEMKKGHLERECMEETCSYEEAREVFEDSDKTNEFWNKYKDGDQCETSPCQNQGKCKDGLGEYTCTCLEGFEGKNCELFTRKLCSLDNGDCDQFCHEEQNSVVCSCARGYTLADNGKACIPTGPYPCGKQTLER
Nature of the assay: Factor Xa IC50 determination: cleavage of paranitroanilide substrate S-2765 in 96-well plates. Type of assay: biochemical. Conditions: fXa 1 nM, S-2765 100 μM, Tris buffered saline pH 7.4, room temperature. An outline of the steps:
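Initial rates of S-2765 (100 μM final) cleavage, read at 405 nm for 2 min, fitted with a four-parameter equation to give IC50. Enzyme: 1 nM human plasma fXa, 5 min room-temperature preincubation with inhibitor (0.01 nM–10 μM) in 20 mM Tris, 150 mM NaCl, 5 mM CaCl2, 0.1% BSA, 5% DMSO, pH 7.4; duplicates.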
`O=C(O)c1ccc(C2=NOC(CNC(=O)c3ccc(Cl)s3)C2)cc1` (stereo not shown) [Example 158, 4-(5-{[(5-Chloro-thiophene-2-carbonyl)-amino]-methyl}-4,5-dihydro-isoxazol-3-yl)-benzoic acid] registered a half-maximal inhibitory concentration (IC50) of at least 500 nM.
To `O=C(O)c1ccc(-c2cc(CNC(=O)c3ccc(Cl)s3)on2)cc1` [Example 159, 4-(5-{[(5-Chloro-thiophene-2-carbonyl)-amino]-methyl}-isoxazol-3-yl)-benzoic acid] belongs at least 500 nM; to `Nc1ccc(C2=NOC(CNC(=O)c3ccc(Cl)s3)C2)cc1` (stereo not shown) [Example 160, 5-Chloro-thiophene-2-carboxylic acid [3-(4-amino-phenyl)-4,5-dihydro-isoxazol-5-ylmethyl]-amide], at least 500 nM; to `Nc1ccc(-c2cc(CNC(=O)c3ccc(Cl)s3)on2)cc1` [Example 161, 5-Chloro-thiophene-2-carboxylic acid [3-(4-amino-phenyl)-isoxazol-5-ylmethyl]-amide], at most 100 nM.
To `CN(C)C(=O)c1ccc(C2=NOC(CNC(=O)c3ccc(Cl)s3)C2)cc1` (stereo not shown) [Example 162, 5-Chloro-thiophene-2-carboxylic acid [3-(4-dimethylcarbamoyl-phenyl)-4,5-dihydro-isoxazol-5-ylmethyl]-amide] belongs at most 100 nM.
To `O=C(NCC1CC(c2ccc(C(=O)N3CCC3)cc2)=NO1)c1ccc(Cl)s1` (stereo not shown) [Example 163, 5-Chloro-thiophene-2-carboxylic acid {3-[4-(azetidine-1-carbonyl)-phenyl]-4,5-dihydro-isoxazol-5-ylmethyl}-amide] belongs at most 100 nM; to `O=C(NCC1CC(c2ccc(C(=O)N3CCCC3)cc2)=NO1)c1ccc(Cl)s1` (stereo not shown) [Example 164, 5-Chloro-thiophene-2-carboxylic acid {3-[4-(pyrrolidine-1-carbonyl)-phenyl]-4,5-dihydro-isoxazol-5-ylmethyl}-amide], at most 100 nM; to `CC1CCCN1C(=O)c1ccc(C2=NOC(CNC(=O)c3ccc(Cl)s3)C2)cc1` (stereo not shown) [Example 165, 5-Chloro-thiophene-2-carboxylic acid {3-[4-(2-methyl-pyrrolidine-1-carbonyl)-phenyl]-4,5-dihydro-isoxazol-5-ylmethyl}-amide], 100 to 500 nM.
`CCN(CC)CCN(C)C(=O)c1ccc(C2=NOC(CNC(=O)c3ccc(Cl)s3)C2)cc1` (stereo not shown) [Example 166, 5-Chloro-thiophene-2-carboxylic acid (3-{4-[(2-diethylamino-ethyl)-methyl-carbamoyl]-phenyl}-4,5-dihydro-isoxazol-5-ylmethyl)-amide] gave a concentration for half-maximal inhibition (IC50) of at most 100 nM.
To `O=C(NCc1cc(-c2ccc(C(=O)N3CCCC3)cc2)no1)c1ccc(Cl)s1` [Example 167, 5-Chloro-thiophene-2-carboxylic acid {3-[4-(pyrrolidine-1-carbonyl)-phenyl]-isoxazol-5-ylmethyl}-amide] belongs 100 to 500 nM; to `CCN(CC)CCN(C)C(=O)c1ccc(-c2cc(CNC(=O)c3ccc(Cl)s3)on2)cc1` [Example 168, 5-Chloro-thiophene-2-carboxylic acid (3-{4-[(2-diethylamino-ethyl)-methyl-carbamoyl]-phenyl}-isoxazol-5-ylmethyl)-amide], at least 500 nM; to `CCN1CCC(C2=NOC(CNC(=O)c3ccc(Cl)s3)C2)CC1` (stereo not shown) [Example 169, 5-Chloro-thiophene-2-carboxylic acid [3-(1-ethyl-piperidin-4-yl)-4,5-dihydro-isoxazol-5-ylmethyl]-amide], at least 500 nM.
Under `O=C(NCC1CC(C2CCN(Cc3ccccc3)CC2)=NO1)c1ccc(Cl)s1` (stereo not shown) [Example 170, 5-Chloro-thiophene-2-carboxylic acid [3-(1-benzyl-piperidin-4-yl)-4,5-dihydro-isoxazol-5-ylmethyl]-amide] stands at least 500 nM.
To `CC(C)N1CCC(C2=NOC(CNC(=O)c3ccc(Cl)s3)C2)CC1` (stereo not shown) [Example 171, 5-Chloro-thiophene-2-carboxylic acid [3-(1-isopropyl-piperidin-4-yl)-4,5-dihydro-isoxazol-5-ylmethyl]-amide] belongs at least 500 nM; to `N=C(N)N1CCC(C2=NOC(CNC(=O)c3ccc(Cl)s3)C2)CC1` (stereo not shown) [Example 172, 5-Chloro-thiophene-2-carboxylic acid [3-(1-carbamimidoyl-piperidin-4-yl)-4,5-dihydro-isoxazol-5-ylmethyl]-amide], at least 500 nM.
With `CC(=N)N1CCC(C2=NOC(CNC(=O)c3ccc(Cl)s3)C2)CC1` (stereo not shown) [Example 173, 5-Chloro-thiophene-2-carboxylic acid {3-[1-(1-imino-ethyl)-piperidin-4-yl]-4,5-dihydro-isoxazol-5-ylmethyl}-amide], the IC50 was at least 500 nM.
For `N=C(c1ccccc1)N1CCC(C2=NOC(CNC(=O)c3ccc(Cl)s3)C2)CC1` (stereo not shown) [Example 174, 5-Chloro-thiophene-2-carboxylic acid {3-[1-(imino-phenyl-methyl)-piperidin-4-yl]-4,5-dihydro-isoxazol-5-ylmethyl}-amide], the IC50 is at least 500 nM.
To `N=C(c1ccccn1)N1CCC(C2=NOC(CNC(=O)c3ccc(Cl)s3)C2)CC1` (stereo not shown) [Example 175, 5-Chloro-thiophene-2-carboxylic acid {3-[1-(imino-pyridin-2-yl-methyl)-piperidin-4-yl]-4,5-dihydro-isoxazol-5-ylmethyl}-amide] belongs at least 500 nM; to `O=C(NCc1cc(C2CCNCC2)no1)c1ccc(Cl)s1` [Example 176, 5-Chloro-thiophene-2-carboxylic acid (3-piperidin-4-yl-isoxazol-5-ylmethyl)-amide], at least 500 nM; to `CCN1CCC(c2cc(CNC(=O)c3ccc(Cl)s3)on2)CC1` [Example 177, 5-Chloro-thiophene-2-carboxylic acid [3-(1-ethyl-piperidin-4-yl)-isoxazol-5-ylmethyl]-amide], at least 500 nM.
Under `O=C(NCc1cc(C2CCN(Cc3ccccc3)CC2)no1)c1ccc(Cl)s1` [Example 178, 5-Chloro-thiophene-2-carboxylic acid [3-(1-benzyl-piperidin-4-yl)-isoxazol-5-ylmethyl]-amide] stands at least 500 nM; under `N=C(N)N1CCC(c2cc(CNC(=O)c3ccc(Cl)s3)on2)CC1` [Example 179, 5-Chloro-thiophene-2-carboxylic acid [3-(1-carbamimidoyl-piperidin-4-yl)-isoxazol-5-ylmethyl]-amide], at least 500 nM.
To `CC(=N)N1CCC(c2cc(CNC(=O)c3ccc(Cl)s3)on2)CC1` [Example 180, 5-Chloro-thiophene-2-carboxylic acid {3-[1-(1-imino-ethyl)-piperidin-4-yl]-isoxazol-5-ylmethyl}-amide] belongs at least 500 nM; to `N=C(c1ccccc1)N1CCC(c2cc(CNC(=O)c3ccc(Cl)s3)on2)CC1` [Example 181, 5-Chloro-thiophene-2-carboxylic acid {3-[1-(imino-phenyl-methyl)-piperidin-4-yl]-isoxazol-5-ylmethyl}-amide], at least 500 nM; to `O=Cc1ccccc1-c1ccc(C2=NOC(CNC(=O)c3ccc(Cl)s3)C2)cc1` (stereo not shown) [Example 183, 5-Chloro-thiophene-2-carboxylic acid [3-(2′-formyl-biphenyl-4-yl)-4,5-dihydro-isoxazol-5-ylmethyl]-amide], at least 500 nM.

The IC50 is the point on the concentration scale where inhibition reaches its midpoint. A lower IC50 goes with greater potency.
